In patent publication US7592140B2, “2′, 5′-oligoadenylate phosphodiesterase” (priority 2002, dated 2009):

Assays:
[1] = biological target: T1, recombinant human 2′-PDE (Homo sapiens, UniProt Q6L8Q7); assay: Substrate specificity of recombinant human 2′-PDE (HPLC); format: biochemical; design: His6 (histidine hexamer) (C); made in house; host or cells: COS-1 cells (monkey kidney), transient transfection with pEF6/KUBO#002/11-1; nickel-chelate partial purification; conditions: relative to adenylyl(2′-5′)adenosine defined as one; 150 μM substrate, 37° C. for 60 min
T1 sequence (Q6L8Q7 43-609): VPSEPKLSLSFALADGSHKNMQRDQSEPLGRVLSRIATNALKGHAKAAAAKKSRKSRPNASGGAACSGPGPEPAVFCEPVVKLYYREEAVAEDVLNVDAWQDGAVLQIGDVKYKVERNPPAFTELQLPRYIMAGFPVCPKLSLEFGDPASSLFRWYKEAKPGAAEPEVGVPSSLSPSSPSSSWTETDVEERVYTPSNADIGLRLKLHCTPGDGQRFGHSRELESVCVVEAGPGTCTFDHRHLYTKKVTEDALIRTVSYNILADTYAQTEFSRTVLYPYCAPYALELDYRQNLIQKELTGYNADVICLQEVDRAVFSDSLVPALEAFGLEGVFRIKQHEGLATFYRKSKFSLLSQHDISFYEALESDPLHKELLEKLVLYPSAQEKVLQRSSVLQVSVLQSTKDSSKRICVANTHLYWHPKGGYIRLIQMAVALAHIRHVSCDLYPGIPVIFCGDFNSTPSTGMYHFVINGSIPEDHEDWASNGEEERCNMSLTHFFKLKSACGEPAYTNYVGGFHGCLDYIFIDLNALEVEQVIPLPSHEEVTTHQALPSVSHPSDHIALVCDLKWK

[2] = test system: 2′-PDE purified by Johnston et al.; conditions: value obtained by Johnston et al.; activity with A2′pA defined as 1; cited from earlier work
[3] = test system: 2′-PDE stable expression strains #6 and #10; assay: Cell viability of 2′-PDE stable expression strains of PC-3 (Alamar Blue); format: cell-based, human; conditions: cultured for 3 days
[4] = test system: PC-3 cells; assay: Cell viability of PC-3 cells (Alamar Blue); format: cell-based, human; conditions: host PC-3 cells, cultured for 3 days
[5] = test system: Vaccinia virus WR strain; format: cell-based
[6] = biological target: T1, recombinant human 2′-PDE; assay: Inhibition of recombinant human 2′-PDE activity (HPLC measurement of substrate reduction); format: biochemical; design: His6 (histidine hexamer) (C); made in house; nickel-chelate partial purification; conditions: substrate 0.75 mM adenylyl(2′-5′)adenosine, 37° C. for 60 min; read-out: 50% inhibition concentration (converted)
Protocol: To 10 μl of the partially purified human 2′-PDE enzyme solution obtained in part 1) of Production Example 1, were added 80 μl of Buffer 7 containing 0.75 mM adenylyl(2′-5′)adenosine as the substrate and 10 μl of a solution of the A-74528 compound dissolved in dimethyl sulphoxide. Then the mixture was incubated at 37° C. for 60 min. and the enzyme was inactivated by addition of 200 μl of methanol. Ten μl of the sample obtained, after insoluble matter was removed using a 0.45 μm filter, was subjected to a reversed phase column (Inertsil ODS-2, 5 μm: diameter 4.6 mm×150 mm: manufactured by GL Science), equilibrated beforehand with Buffer 17 [50 mM ammonium acetate (pH 5.0), 5% (V/V) acetonitrile]. Liquid chromatography was performed at a flow rate of 1 ml/min. at 40° C., and the eluate was monitored at a wavelength of 260 nm. The elution was conducted as an isocratic elution. Using a standard material for the substrate, a conversion formula for obtaining the substrate amount based on the peak area was prepared. Based on the conversion formula, the reduction in the amount of the substrate was calculated from the substrate peak area when the diluted enzyme solution was added, which was regarded as the amount of the enzyme reaction product.

[7] = Solubility (physicochemical properties)

Nc1ncnc2c1ncn2[C@@H]1O[C@H](COP(=O)(O)O[C@H]2[C@@H](O)[C@H](n3cnc4c(N)ncnc43)O[C@@H]2COP(=O)(O)O[C@H]2[C@@H](O)[C@H](n3cnc4c(N)ncnc43)O[C@@H]2CO)[C@@H](O)[C@H]1O [adenylyl(3′-5′)adenylyl(3′-5′)adenosine]
relative cleavage efficiency [1]: 1.1 | relative cleavage efficiency [2]: 163

interferon-α
cell proliferation suppression activity compared with host PC-3 cells [3]: attenuated | suppression of cell viability [4]: suppressed the viability of PC-3 cells in a concentration-dependent manner

CC1c2c(O)cc(O)c3c2C2C(CC(O)=C4C(=O)c5c(O)cc(O)cc5C(C3=O)C42Cc2cc(O)cc(=O)o2)C1O (stereo not shown) [A-74528]
effect on viral replication-suppression activity of interferon-α [5]: enhanced the viral replication-suppression activity of interferon-α | viral replication-suppression activity [5]: exhibited a viral replication-suppression activity in a concentration-dependent manner | IC50 [6]: 60.7 µM | solubility [7]: soluble in methanol and dimethyl sulphoxide

B1: interferon-γ (protein, UniProt P01579 24-161, looked up)
Interferon gamma: QDPYVKEAENLKKYFNAGHSDVADNGTLFLGILKNWKEESDRKIMQSQIVSFYFKLFKNFKDDQSIQKSVETIKEDMNVKFFNSNKKKRDDFEKLTNYSVTDLNVQRKAIHELIQVMAELSPAAKTGKRKRSQMLFRG
cell proliferation suppression activity compared with host PC-3 cells [3]: attenuated | suppression of cell viability [4]: suppressed the viability of PC-3 cells in a concentration-dependent manner
